Assay results published in patent US7259011B2, “Pluripotent adult stem cells” (priority 2004, dated 2007).
Where two headings read alike, the source gives them in different places.

Test system: PPASCs
Excerpt: PPASCs were thawed or trypsinized from expansion cultures and plated at 20,000 cells per 16 mm well in 24-well gelatin-coated culture plates (Corning Glass Works, Corning, N.Y.). All wells contained EMEM and 10% pre-selected horse serum. The control group remained in this medium, while the experimental wells contained media supplemented with dexamethasone (Sigma). Dexamethasone used were logarithmic concentrations from 10^−10 to 10^−6 M. Cultures were fixed and assayed for phenotypes at one-week intervals up to five weeks.
The immunohistochemical protocol typically used was adopted from Romero-Ramos et al. (2002)^3:
8) 0.25 ml of the primary antibody in PBS was added for 60 minutes at 37° C. • Antibodies used: Table 2
10) A second blocking step of 1% Goat Serum in PBS with 0.5% Tween was performed for 20 minutes preceding the addition of the secondary antibody. • 11) The cells received 0.25 ml of horse-radish peroxidase conjugated IgG secondary antibody that was diluted with PBS to a concentration of 1:1500 or secondary antibody conjugated with either FITC or TRITC fluorochrome. • 12) After 30 minutes of incubation at 37° C. with the secondary antibody, the wells were rinsed with PBS five times. If the secondary antibody was conjugated to fluorochrome, photographs were taken after this step. • 13) 0.25 ml of True Blue or DAB solution was added and light protected for up to 20 minutes. • 14) Five rinses of dH2O followed. • 15) Photographs were taken on an Olympus Inverted Scope Model IMT light microscope.

Q: Which “concentration at which cells containing vesicles (Sudan Black B stained, adipocytes) were observed” value does the source give for C[C@@H]1C[C@H]2[C@@H]3CCC4=CC(=O)C=C[C@]4(C)[C@@]3(F)[C@@H](O)C[C@]2(C)[C@@]1(O)C(=O)CO [dex, dexamethasone] here?
A: Its value is 10^−9 to 10^−6 M.

Q: What about the “concentration at which induction of endothelial cells reproducibly occurred” value of the same compound?
A: The value was ≥ 10^−8 M.

Q: What about the “concentration giving the highest quantity of hepatocytes” value of the same compound?
A: Its value is 10^−8 M.

Q: And the “AFP stained cells (liver; α-fetoprotein)” value (10^−6 M dex)?
A: Its value is “+ (+ = 1–5 cells seen per culture well.)”.

Q: And the “CIICI stained cells (cartilage; type II collagen)” value (“CIICI stained cells” below) (10^−6 M dex)?
A: The value was “− (− = no stained cells seen per culture well.)”.

Q: What about the “CNPase stained cells (glial cells)” value (10^−6 M dex) of the same compound?
A: The value was “− (− = no stained cells seen per culture well.)”.

Q: And the “CT3 stained cells (cardiac muscle; cardiac troponin T)” value (“CT3 stained cells” for short) (10^−6 M dex)?
A: Its value is “+ (+ = 1–5 cells seen per culture well.)”.

Q: What about the “Desmin stained cells (myogenic precursor cells)” value (“Desmin stained cells” below) (10^−6 M dex) of the same compound?
A: The value was “+ (+ = 1–5 cells seen per culture well.)”.

Q: What about the “GFAP stained cells (astrocytes)” value (10^−6 M dex) of the same compound?
A: Its value is “− (− = no stained cells seen per culture well.)”.

Q: And the “IA4 stained cells (smooth muscle; α-smooth muscle actin)” value (from here on “IA4 stained cells”) (10^−6 M dex)?
A: Its value is “+ (+ = 1–5 cells seen per culture well.)”.

Q: And the IL-1β stained cells (10^−6 M dex)?
A: Its IL-1β stained cells is “+ (+ = 1–5 cells seen per culture well.)”.

Q: What about the “LDL uptake (fluorescent labeled acetylated low density lipoprotein, 20 min)” value (“LDL uptake” below) (10^−6 M dex) of the same compound?
A: Its value is “++ (++ = 5–10 cells observed per culture well.)”.

Q: What about the “MF-20 stained cells (skeletal muscle; heavy chain of myosin)” value (“MF-20 stained cells” below) (10^−6 M dex) of the same compound?
A: Its value is “− (− = no stained cells seen per culture well.)”.

Q: What about the “MPIII stained cells (bone; osteopontin)” value (10^−6 M dex) of the same compound?
A: The value was “− (− = no stained cells seen per culture well.)”.

Q: What about the “P2B1 stained cells (endothelial cells)” value (10^−6 M dex) of the same compound?
A: Its value is “++ (++ = 5–10 cells observed per culture well.)”.

Q: What about the “P4A4 stained cells (endothelial cells)” value (10^−6 M dex) of the same compound?
A: Its value is “+ (+ = 1–5 cells seen per culture well.)”.

Q: And the “Sudan Black B stained cells (fat)” value (10^−6 M dex)?
A: The value was “++ (++ = 5–10 cells observed per culture well.)”.

Q: What about the “Talin stained cells (fibroblasts)” value (10^−6 M dex) of the same compound?
A: Its value is “− (− = no stained cells seen per culture well.)”.

Q: And the “Trop I stained cells (cardiac muscle; cardiac troponin I)” value (“Trop I stained cells” for short) (10^−6 M dex)?
A: The value was “+ (+ = 1–5 cells seen per culture well.)”.

Q: What about the “WVIDI stained cells (bone; bone sialoproteins I and II)” value (shortened to “WVIDI stained cells”) (10^−6 M dex) of the same compound?
A: The value was “− (− = no stained cells seen per culture well.)”.

Q: And the “AFP stained cells (liver; α-fetoprotein)” value (10^−7 M dex)?
A: The value was “++ (++ = 5–10 cells observed per culture well.)”.

Q: And the “CIICI stained cells” value (10^−7 M dex)?
A: Its value is “+ (+ = 1–5 cells seen per culture well.)”.

Q: What about the “CNPase stained cells (glial cells)” value (10^−7 M dex) of the same compound?
A: Its value is “− (− = no stained cells seen per culture well.)”.

Q: What about the “CT3 stained cells” value (10^−7 M dex) of the same compound?
A: Its value is “++ (++ = 5–10 cells observed per culture well.)”.

Q: And the “Desmin stained cells” value (10^−7 M dex)?
A: Its value is “+ (+ = 1–5 cells seen per culture well.)”.

Q: What about the “GFAP stained cells (astrocytes)” value (10^−7 M dex) of the same compound?
A: The value was “− (− = no stained cells seen per culture well.)”.

Q: And the “IA4 stained cells” value (10^−7 M dex)?
A: The value was “++ (++ = 5–10 cells observed per culture well.)”.

Q: And the IL-1β stained cells (10^−7 M dex)?
A: The IL-1β stained cells was “+ (+ = 1–5 cells seen per culture well.)”.

Q: What about the “LDL uptake” value (10^−7 M dex) of the same compound?
A: Its value is “++ (++ = 5–10 cells observed per culture well.)”.

Q: And the “MF-20 stained cells” value (10^−7 M dex)?
A: Its value is “− (− = no stained cells seen per culture well.)”.

Q: And the “MPIII stained cells (bone; osteopontin)” value (10^−7 M dex)?
A: The value was “+ (+ = 1–5 cells seen per culture well.)”.

Q: And the “P2B1 stained cells (endothelial cells)” value (10^−7 M dex)?
A: The value was “+ (+ = 1–5 cells seen per culture well.)”.

Q: And the “P4A4 stained cells (endothelial cells)” value (10^−7 M dex)?
A: Its value is “+ (+ = 1–5 cells seen per culture well.)”.

Q: What about the “Sudan Black B stained cells (fat)” value (10^−7 M dex) of the same compound?
A: The value was “++ (++ = 5–10 cells observed per culture well.)”.

Q: What about the “Talin stained cells (fibroblasts)” value (10^−7 M dex) of the same compound?
A: Its value is “++ (++ = 5–10 cells observed per culture well.)”.

Q: And the “Trop I stained cells” value (10^−7 M dex)?
A: Its value is “+ (+ = 1–5 cells seen per culture well.)”.

Q: And the “WVIDI stained cells” value (10^−7 M dex)?
A: Its value is “+ (+ = 1–5 cells seen per culture well.)”.

Q: And the “AFP stained cells (liver; α-fetoprotein)” value (10^−8 M dex)?
A: The value was “+ (+ = 1–5 cells seen per culture well.)”.

Q: What about the “CIICI stained cells” value (10^−8 M dex) of the same compound?
A: The value was “++ (++ = 5–10 cells observed per culture well.)”.

Q: What about the “CNPase stained cells (glial cells)” value (10^−8 M dex) of the same compound?
A: Its value is “+ (+ = 1–5 cells seen per culture well.)”.

Q: And the “CT3 stained cells” value (10^−8 M dex)?
A: The value was “+ (+ = 1–5 cells seen per culture well.)”.

Q: And the “Desmin stained cells” value (10^−8 M dex)?
A: Its value is “+ (+ = 1–5 cells seen per culture well.)”.

Q: What about the “GFAP stained cells (astrocytes)” value (10^−8 M dex) of the same compound?
A: The value was “− (− = no stained cells seen per culture well.)”.

Q: And the “IA4 stained cells” value (10^−8 M dex)?
A: The value was “+ (+ = 1–5 cells seen per culture well.)”.

Q: And the IL-1β stained cells (10^−8 M dex)?
A: Its IL-1β stained cells is “+ (+ = 1–5 cells seen per culture well.)”.

Q: What about the “LDL uptake” value (10^−8 M dex) of the same compound?
A: The value was “+ (+ = 1–5 cells seen per culture well.)”.

Q: What about the “MF-20 stained cells” value (10^−8 M dex) of the same compound?
A: The value was “+ (+ = 1–5 cells seen per culture well.)”.

Q: What about the “MPIII stained cells (bone; osteopontin)” value (10^−8 M dex) of the same compound?
A: Its value is “+ (+ = 1–5 cells seen per culture well.)”.

Q: And the “P2B1 stained cells (endothelial cells)” value (10^−8 M dex)?
A: Its value is “− (− = no stained cells seen per culture well.)”.

Q: And the “P4A4 stained cells (endothelial cells)” value (10^−8 M dex)?
A: The value was “+ (+ = 1–5 cells seen per culture well.)”.

Q: And the “Sudan Black B stained cells (fat)” value (10^−8 M dex)?
A: Its value is “+ (+ = 1–5 cells seen per culture well.)”.

Q: And the “Talin stained cells (fibroblasts)” value (10^−8 M dex)?
A: The value was “++ (++ = 5–10 cells observed per culture well.)”.

Q: What about the “Trop I stained cells” value (10^−8 M dex) of the same compound?
A: Its value is “+ (+ = 1–5 cells seen per culture well.)”.

Q: And the “WVIDI stained cells” value (10^−8 M dex)?
A: The value was “+ (+ = 1–5 cells seen per culture well.)”.

Q: And the “AFP stained cells (liver; α-fetoprotein)” value (10^−9 M dex)?
A: Its value is “+ (+ = 1–5 cells seen per culture well.)”.

Q: And the “CIICI stained cells” value (10^−9 M dex)?
A: The value was “+ (+ = 1–5 cells seen per culture well.)”.

Q: And the “CNPase stained cells (glial cells)” value (10^−9 M dex)?
A: The value was “++ (++ = 5–10 cells observed per culture well.)”.

Q: What about the “CT3 stained cells” value (10^−9 M dex) of the same compound?
A: The value was “− (− = no stained cells seen per culture well.)”.

Q: What about the “Desmin stained cells” value (10^−9 M dex) of the same compound?
A: The value was “++ (++ = 5–10 cells observed per culture well.)”.

Q: What about the “GFAP stained cells (astrocytes)” value (10^−9 M dex) of the same compound?
A: Its value is “++ (++ = 5–10 cells observed per culture well.)”.

Q: And the “IA4 stained cells” value (10^−9 M dex)?
A: The value was “− (− = no stained cells seen per culture well.)”.

Q: And the IL-1β stained cells (10^−9 M dex)?
A: The IL-1β stained cells was “− (− = no stained cells seen per culture well.)”.

Q: What about the “LDL uptake” value (10^−9 M dex) of the same compound?
A: The value was “− (− = no stained cells seen per culture well.)”.

Q: What about the “MF-20 stained cells” value (10^−9 M dex) of the same compound?
A: Its value is “+ (+ = 1–5 cells seen per culture well.)”.

Q: What about the “MPIII stained cells (bone; osteopontin)” value (10^−9 M dex) of the same compound?
A: Its value is “+ (+ = 1–5 cells seen per culture well.)”.

Q: And the “P2B1 stained cells (endothelial cells)” value (10^−9 M dex)?
A: The value was “− (− = no stained cells seen per culture well.)”.

Q: What about the “P4A4 stained cells (endothelial cells)” value (10^−9 M dex) of the same compound?
A: Its value is “− (− = no stained cells seen per culture well.)”.

Q: And the “Sudan Black B stained cells (fat)” value (10^−9 M dex)?
A: The value was “− (− = no stained cells seen per culture well.)”.

Q: And the “Talin stained cells (fibroblasts)” value (10^−9 M dex)?
A: Its value is “+ (+ = 1–5 cells seen per culture well.)”.

Q: What about the “Trop I stained cells” value (10^−9 M dex) of the same compound?
A: Its value is “− (− = no stained cells seen per culture well.)”.

Q: And the “WVIDI stained cells” value (10^−9 M dex)?
A: Its value is “+ (+ = 1–5 cells seen per culture well.)”.

Q: And the “AFP stained cells (liver; α-fetoprotein)” value (10^−10 M dex)?
A: Its value is “− (− = no stained cells seen per culture well.)”.

Q: And the “CIICI stained cells” value (10^−10 M dex)?
A: The value was “− (− = no stained cells seen per culture well.)”.

Q: What about the “CNPase stained cells (glial cells)” value (10^−10 M dex) of the same compound?
A: Its value is “++ (++ = 5–10 cells observed per culture well.)”.

Q: And the “CT3 stained cells” value (10^−10 M dex)?
A: The value was “− (− = no stained cells seen per culture well.)”.

Q: And the “Desmin stained cells” value (10^−10 M dex)?
A: Its value is “+ (+ = 1–5 cells seen per culture well.)”.

Q: What about the “GFAP stained cells (astrocytes)” value (10^−10 M dex) of the same compound?
A: Its value is “+ (+ = 1–5 cells seen per culture well.)”.

Q: And the “IA4 stained cells” value (10^−10 M dex)?
A: Its value is “− (− = no stained cells seen per culture well.)”.

Q: What about the IL-1β stained cells (10^−10 M dex) of the same compound?
A: The IL-1β stained cells was “− (− = no stained cells seen per culture well.)”.

Q: What about the “LDL uptake” value (10^−10 M dex) of the same compound?
A: The value was “− (− = no stained cells seen per culture well.)”.

Q: And the “MF-20 stained cells” value (10^−10 M dex)?
A: The value was “+ (+ = 1–5 cells seen per culture well.)”.

Q: And the “MPIII stained cells (bone; osteopontin)” value (10^−10 M dex)?
A: Its value is “+ (+ = 1–5 cells seen per culture well.)”.

Q: And the “P2B1 stained cells (endothelial cells)” value (10^−10 M dex)?
A: The value was “− (− = no stained cells seen per culture well.)”.

Q: What about the “P4A4 stained cells (endothelial cells)” value (10^−10 M dex) of the same compound?
A: The value was “− (− = no stained cells seen per culture well.)”.

Q: And the “Sudan Black B stained cells (fat)” value (10^−10 M dex)?
A: The value was “− (− = no stained cells seen per culture well.)”.

Q: What about the “Talin stained cells (fibroblasts)” value (10^−10 M dex) of the same compound?
A: Its value is “− (− = no stained cells seen per culture well.)”.

Q: What about the “Trop I stained cells” value (10^−10 M dex) of the same compound?
A: The value was “− (− = no stained cells seen per culture well.)”.

Q: What about the “WVIDI stained cells” value (10^−10 M dex) of the same compound?
A: The value was “+ (+ = 1–5 cells seen per culture well.)”.

Q: What about the “Von Kossa's stain of multilayered nodules (mineral)” value (after 3 weeks of treatment) of the same compound?
A: Its value is “mineralized”.

Q: What about the “Alcian blue pH 1.0 staining (cartilage)” value (pH 1) of the same compound?
A: Its value is “sulfated proteoglycans were detected”.
